{FAM} = fluorescein (FAM) reporter dye; {TAMRA} = TAMRA quencher dye
Columns and labels:
[1] = system: substrate RNA SL1; test: Real time measurement of fluorescence at cleavage of SL1 by HHR1 transcribed in vitro with T7-RNA polymerase; format: biochemical; details: 900 nM SL1, 37° C., 535 nm, T7 in-vitro transcription
Description: A typical 50 μl reaction batch contained: 40 mM tris HCl, pH 8.0, 50 mM NaCl, 2 mM spermidin, 5 mM dithiothreitol, 5 to 25 mM MgCl2, about 500 nM SL1, 0.2 to 2 μM HHR1-DNA or HHR1mut-DNA, 4mM A/C/G/UTP and 50 units of T7-RNA-polymerase. […] In-vitro transcription was started by the addition of the polymerase, and incubation was carried out at 37° C. while the measurement was taken. • 3. Real Time Measurement of Fluorescence at Cleavage of SL1 by HHR1:
The fluorescence of the transcription batches was measured in an automated manner in an ABI Prism 770 spectrometer (Applied Biosystems, USA), the temperature of which could be adjusted. The spectra in the emission wavelength range of the two dyes (FAM, λmax=518 nm and TAMRA, λmax=582 nm) were recorded in intervals of 7 seconds (excitation energy=488 nm). After an incubation time of 3 hours, the collected data were evaluated by the software contained in the equipment. For a real time control of the individual transcriptions, the fluorescence spectra (range of 500 nm to 660 nm) were projected time-dependently over the spectrum of the reference transcription (with non-functional HHR1mut DNA).

[2] = system: FRET substrate (SL1); test: Real time FRET measurement of ribozyme cleavage activity (HHR1 with substrate SL1); format: biochemical; details: HHR1 4 nM, 37° C.; SL1 vs S1 (conventional gel/autoradiography method)
Description: As the increase in fluorescence is directly correlated to the cleavage rate, the system is suitable for a sensitive, non-radioactive and fast analysis of ribozyme activities. A FRET substrate (SLI) was constructed on the basis of a known HHR/substrate complex (M. Fedor, O. C. Uhlenbeck, Proc. Natl. Acad. Sci. USA (1990), 87, 1668-1672) and was used for a time-dependent measurement of ribozyme activity (HHR1). […] The Michaelis-Menten parameter of HHR can be obtained in a single experiment by measurement of the cleavage-caused rise in fluorescence at different substrate concentrations.
In order to find out whether the method is suitable for the fast characterization of ribozymes, the activity was measured in parallel batches while various physico-chemical parameters were modified.
FIGS. 3b-d show the dependency of the reaction rate on the pH value, the temperature and the Mg^2+ concentration. […]
Characterization of the cleavage activity at 4 nM HHR1 and 200 or 300 nM SL1. (a) Time-dependent course of cleavage with the reciprocally exponential regression curve (only 1% of all data points measured are depicted). […] (0.0134 nM^−1 min^−1) were also determined.
The real time measurements of the rise in fluorescence caused by the ribozyme were taken in 50 μl reaction batches. The signal measured comprises both the chemical step of cleavage and the release of the cleavage products. […]

| Substance | relative fluorescence ΔRn of the fluorophore / fluorescence signal [1] | Kcat and KM values of FRET substrate compared with 32P labeled substrate S1 [2] |
| --- | --- | --- |
| 5′-TCT AAT ACG ACT CAC TAT A GGGTCCTCTTAGGAGGCCGTTAGGCCAGAACTCGT-3′ [HHR1mut, reference compound] | no influence | – |
| 5′-FAM-ACG AGU CAG GAU U-TAMRA-3′ (ACGAGUCAGGAUU; RNA, 5' {FAM}, 3' {TAMRA}, backbone not given here) [SL1, 5′-FAM and 3′-TAMRA labeled substrate RNA (FRET substrate)] | – | in the same order of magnitude |
| 5′-TCT AAT ACG ACT CAC TAT A GGGTCCTCTGATGAGGCCGTTAGGCCGAAACTCGT-3′ [HHR1-DNA] | increased with the incubation times | – |
